Measurements published in US4766140A, “Method of inhibiting aromatase” (Eli Lilly and Company, priority 1984, dated 1988).

What was measured:
[1] = molecular target: T1, aromatase (Rattus norvegicus, UniProt P22443); test: Aromatase inhibition in the rat ovarian microsome assay; format: biochemical; conditions: rat ovarian microsomes; substrate (androstenedione) concentration 0.1 μM
T1 construct: ovarian microsomes are obtained from rats treated with pregnant mares serum gonadotropin; from tissue; host or cells: ovarian microsomes from rats treated with pregnant mares serum gonadotropin
T1 sequence (P22443 1-508): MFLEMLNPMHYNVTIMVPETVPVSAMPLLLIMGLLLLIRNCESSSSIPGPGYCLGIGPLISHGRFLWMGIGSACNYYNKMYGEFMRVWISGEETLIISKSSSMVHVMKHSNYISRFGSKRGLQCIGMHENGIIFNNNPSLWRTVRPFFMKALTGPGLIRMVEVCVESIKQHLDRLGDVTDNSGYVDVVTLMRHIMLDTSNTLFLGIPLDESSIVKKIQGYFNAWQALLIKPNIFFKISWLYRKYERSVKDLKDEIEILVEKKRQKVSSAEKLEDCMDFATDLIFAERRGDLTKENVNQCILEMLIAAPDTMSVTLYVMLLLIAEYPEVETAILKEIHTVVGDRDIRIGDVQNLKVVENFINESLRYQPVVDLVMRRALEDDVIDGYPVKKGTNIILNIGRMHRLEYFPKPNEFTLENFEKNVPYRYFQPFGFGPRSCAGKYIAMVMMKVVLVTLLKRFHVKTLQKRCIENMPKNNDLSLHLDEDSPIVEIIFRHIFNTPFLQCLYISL
Procedure: In this test system, ovarian microsomes are obtained from rats treated with pregnant mares serum gonadotropin. Test compounds are added to reaction vials containing 0.1 μM 4-androstene-3,17-dione, 100,000 dpm 1,2[^3 H]-androstenedione, the microsomes and a NADPH generating system. The concentrations of the inhibitors tested ranged between 0.005 and 10 μM.

[2] = system: DMBA-induced mammary tumors; test: DMBA-Induced Mammary Tumor Inhibition; format: in vivo, female Sprague-Dawley rats; conditions: 4 mg/kg daily subcutaneously, Test No. I
Procedure: Mammary tumors were produced in female Sprague-Dawley rats which were 50-60 days old by the gavage administration of 20 mg of 7,12-dimethylbenz[a]anthracene (DMBA). About six weeks after DMBA administration, the mammary glands were palpated at weekly intervals for the appearance of tumors. Whenever one or more tumors appeared and were measurable in an animal, that animal was selected for experimentation. […] Each control and test group contained 8 animals. The test compound was dissolved in corn oil and administered subcutaneously once daily. Every experiment included a group of control rats having tumors and were given corn oil vehicle subcutaneously. […] The area of each tumor was calculated by multiplying the shortest and longest diameters of the tumor. The treatment and measurement of animals continued for 3 weeks at which time the final areas of the tumors were determined. The change in the mean tumor area was determined, and the mean change was analyzed for its significance using Dunnett's t-test.

SMILES | EC50 [1] | Mean Tumor Area, Finish ([2]; after 3 weeks, statistically different from control, p < 0.05 (control 392.0)) | Mean Tumor Area, Start ([2]; start of test)
c1ccc(CCn2ccnc2)cc1 [1-(β-phenylethyl)imidazole] | 630 nM | – | –
C=CCOC(Cn1ccnc1)c1ccc(Cl)cc1Cl (centres unmarked) [1-[2-(2,4-dichlorophenyl)-2-(2-propenyloxy)ethyl]-1H-imidazole] | 42 nM | 119.0 mm^2 | 55.2 mm^2
c1ccc(CCCn2ccnc2)cc1 [1-(3-phenylpropyl)imidazole] | 490 nM | – | –
Clc1ccc(C(Cn2ccnc2)OCc2ccsc2Cl)c(Cl)c1 (centres unmarked) [1-(2-[(2-chloro-3-thienyl)-methoxy]-2-[2,4-dichlorophenyl]-ethyl)-1H-imidazole] | 60 nM | – | –
COc1ccc(OC)c(C(O)Cn2ccnc2)c1 (stereo not drawn) [α-(2,5-dimethoxyphenyl)-1H-imidazole-1-ethanol nitrate] | 1500 nM | – | –
O=[N+]([O-])c1ccc(CCn2ccnc2)cc1 [1-[2-(4-nitrophenyl)ethyl]-1H-imidazole] | < 50 nM | – | –
